# US20240133877A1, “PRODUCTS AND METHODS FOR MONITORING ADHERENCE TO NUCLEOSIDE REVERSE TRANSCRIPTASE INHIBITOR THERAPY” (priority 2017, published 2024)
# Where “and” joins values, the source holds several entries; their conditions need not be identical. Equal values may be shown once.
# Experiments:
# [1] = red blood cells and dried blood spots; cited from earlier work
# [2] = test system: anti-TFV antibodies conjugated to colloidal gold; assay: Negative readout lateral flow assay, TFV-DP in whole blood; type: binding; parameters: Visual Read Results / Test Line Visual Read Results: scale not given here; conditions: for TFV-DP conversion to TFV: phosphatase 30 minutes; for Visual Read Results: WB with phosphatase
# Protocol: […] Samples were diluted by 1:10 or 1:2 and loaded onto negative readout lateral flow assays. Visual reads were made at 10- and 15-minute time points.
# Samples were loaded onto negative readout lateral flow assays. Visual reads were made at 10- and 15-minute time points. Results are shown in FIGS. 11A and 11B and Table 10.
# [3] = test system: anti-TFV monoclonal antibody-HRP conjugates; assay: Whole-blood TFV-DP ELISA with phosphatase; type: binding; conditions: for OD Value: replicates
# Protocol: ELISA plates and reagents were equilibrated at room temperature. 50 μL of TFV-DP standard were plated onto a dilution plate in triplicate to generate a standard curve. TFV-DP standards were 250, 100, 50, 25, 10, 5, and 1 ng/mL, along with a blank. 50 μL of whole blood samples were added in duplicate or triplicate.
# […] 25 μL of conjugate solution containing anti-TFV monoclonal antibody-HRP conjugates was added to each well.
# The dilution plate was covered and incubated at 25° C. for 30 minutes with shaking at 300-600 rpm. After incubation, the total volume of the dilution plate wells was transferred to an ELISA plate pre-coated with tenofovir-BSA conjugate (TFV-BSA). The ELISA plate was covered and incubated at 25° C. for 30 minutes with shaking at 300-600 rpm. The ELISA plate was washed with 350 μL per well of wash buffer for a total of 6 cycles, with a final aspirate.
# 100 μL of TMB substrate was added to each well. The ELISA plate was incubated in the dark at 25° C. for 30 minutes. 100 μL of stop solution was added to each well to quench the reactions. Absorbance was measured at 450 (primary) and 630 (reference) nm wavelengths within 15 minutes of quenching the reactions. OD was calculated by subtracting the reference absorbance from the primary absorbance. A standard curve was generated using a 4-parameter logistic regression or a 5-parameter logistic regression. The percent inhibition was calculated using the following formula: […]
# [4] = test system: anti-TFV antibodies conjugated to colloidal gold; assay: Negative readout lateral flow assay, TFV-DP in PBS; type: binding
# Excerpt: […] Samples were loaded onto negative readout lateral flow assays. Lateral flow assays had anti-TFV antibodies conjugated to colloidal gold at the conjugate pad and TFV derivates striped at the test line. Visual reads were made at 10- and 15-minute time points.
smiles,measurement,setting,value
"C[C@H](Cn1cnc2c(N)ncnc21)OCP(=O)(O)OP(=O)(O)OP(=O)(O)O [TFV-DP, tenofovir diphosphate]",accumulation from the first dose to steady state,[1],25 fold
same,half-life,[1],17 days
same,TFV-DP conversion to TFV,"[2]; WB 975 and 325 ng/mL, diluted 1:10 or 1:2",Conversion of TFV-DP to TFV was observed
same,TFV-DP conversion to TFV,"[2]; WB 975 and 325 ng/mL, no further dilution",Conversion of TFV-DP to TFV was observed
same,TFV-DP conversion to TFV,"[2]; WB 1000-12000 ng/mL, diluted 1:10",Conversion of TFV-DP to TFV was observed
same,Test Line Visual Read Results,"[2]; WB diluted 1:10, 1000 ng/ml, 10 minutes",7
same,Test Line Visual Read Results,"[2]; WB diluted 1:10, 1000 ng/ml, 15 minutes",7
same,Test Line Visual Read Results,"[2]; WB diluted 1:10, 2000 ng/ml, 10 minutes",7
same,Test Line Visual Read Results,"[2]; WB diluted 1:10, 2000 ng/ml, 15 minutes",7
same,Test Line Visual Read Results,"[2]; WB diluted 1:10, 3000 ng/ml, 10 minutes",7
same,Test Line Visual Read Results,"[2]; WB diluted 1:10, 3000 ng/ml, 15 minutes",7
same,Test Line Visual Read Results,"[2]; WB diluted 1:10, 3250 ng/ml, 10 minutes",7
same,Test Line Visual Read Results,"[2]; WB diluted 1:10, 3250 ng/ml, 15 minutes",7
same,Test Line Visual Read Results,"[2]; WB diluted 1:10, 4000 ng/ml, 10 minutes",6
same,Test Line Visual Read Results,"[2]; WB diluted 1:10, 4000 ng/ml, 15 minutes",6
same,Test Line Visual Read Results,"[2]; WB diluted 1:10, 5000 ng/ml, 10 minutes",5
same,Test Line Visual Read Results,"[2]; WB diluted 1:10, 5000 ng/ml, 15 minutes",5
same,Test Line Visual Read Results,"[2]; WB diluted 1:10, 6000 ng/ml, 10 minutes",5
same,Test Line Visual Read Results,"[2]; WB diluted 1:10, 6000 ng/ml, 15 minutes",5
same,Test Line Visual Read Results,"[2]; WB diluted 1:10, 7000 ng/ml, 10 minutes",5
same,Test Line Visual Read Results,"[2]; WB diluted 1:10, 7000 ng/ml, 15 minutes",5
same,Test Line Visual Read Results,"[2]; WB diluted 1:10, 8000 ng/ml, 10 minutes",5
same,Test Line Visual Read Results,"[2]; WB diluted 1:10, 8000 ng/ml, 15 minutes",5
same,Test Line Visual Read Results,"[2]; WB diluted 1:10, 9000 ng/ml, 10 minutes",4
same,Test Line Visual Read Results,"[2]; WB diluted 1:10, 9000 ng/ml, 15 minutes",4
same,Test Line Visual Read Results,"[2]; WB diluted 1:10, 9750 ng/ml, 10 minutes",4
same,Test Line Visual Read Results,"[2]; WB diluted 1:10, 9750 ng/ml, 15 minutes",4
same,Test Line Visual Read Results,"[2]; WB diluted 1:10, 10000 ng/ml, 10 minutes",4
same,Test Line Visual Read Results,"[2]; WB diluted 1:10, 10000 ng/ml, 15 minutes",4
same,Test Line Visual Read Results,"[2]; WB diluted 1:10, 11000 ng/ml, 10 minutes",4
same,Test Line Visual Read Results,"[2]; WB diluted 1:10, 11000 ng/ml, 15 minutes",4
same,Test Line Visual Read Results,"[2]; WB diluted 1:10, 12000 ng/ml, 10 minutes",3
same,Test Line Visual Read Results,"[2]; WB diluted 1:10, 12000 ng/ml, 15 minutes",3
same,Visual Read Results,"[2]; diluted 1:10 or 1:2, 325 ng/ml, 10 minutes",6
same,Visual Read Results,"[2]; diluted 1:10 or 1:2, 325 ng/ml, 15 minutes",6
same,Visual Read Results,"[2]; diluted 1:10 or 1:2, 975 ng/ml, 10 minutes",4
same,Visual Read Results,"[2]; diluted 1:10 or 1:2, 975 ng/ml, 15 minutes",4
same,Visual Read Results,"[2]; no further dilution (Table 10), 325 ng/ml, 10 minutes",3/4
same,Visual Read Results,"[2]; no further dilution (Table 10), 325 ng/ml, 15 minutes",3/4
same,Visual Read Results,"[2]; no further dilution (Table 10), 975 ng/ml, 10 minutes",0
same,Visual Read Results,"[2]; no further dilution (Table 10), 975 ng/ml, 15 minutes",0
same,% Inhibition,[3]; No Phosphatase,33.05%
same,OD Average,[3]; No Phosphatase,1.0986
same,OD Value,[3]; No Phosphatase,1.088 and 1.2148 and 1.2340 and 1.1083
same,% Inhibition,[3]; Phosphatase,76.63%
same,OD Average,[3]; Phosphatase,0.3835
same,OD Value,[3]; Phosphatase,0.3853 and 0.3923 and 0.3798 and 0.3766
same,Visual Read Results (Enzyme Present),"[4]; 325 ng/mL, 10 minutes",5
same,Visual Read Results (No Enzyme Present),"[4]; 325 ng/mL, 10 minutes",8
same,Visual Read Results (Enzyme Present),"[4]; 325 ng/mL, 15 minutes",5/6
same,Visual Read Results (No Enzyme Present),"[4]; 325 ng/mL, 15 minutes",8
same,Visual Read Results (Enzyme Present),"[4]; 1300 ng/mL, 10 minutes",3
same,Visual Read Results (No Enzyme Present),"[4]; 1300 ng/mL, 10 minutes",7
same,Visual Read Results (Enzyme Present),"[4]; 1300 ng/mL, 15 minutes",3
same,Visual Read Results (No Enzyme Present),"[4]; 1300 ng/mL, 15 minutes",7
same,Visual Read Results (Enzyme Present),"[4]; 3250 ng/mL, 10 minutes",0/1
same,Visual Read Results (No Enzyme Present),"[4]; 3250 ng/mL, 10 minutes",6
same,Visual Read Results (Enzyme Present),"[4]; 3250 ng/mL, 15 minutes",0/1
same,Visual Read Results (No Enzyme Present),"[4]; 3250 ng/mL, 15 minutes",6
same,TFV-DP conversion to TFV,"[4]; phosphatase from sweet potato extract, 30 minutes",Conversion of TFV-DP to TFV was observed
same,TFV-DP conversion to TFV,[4]; without phosphatase treatment,No conversion of TFV-DP to TFV was observed
